{"source": "ChEMBL document CHEMBL1123035", "about": "“Synthesis and LSD-like discriminative stimulus properties in a series of N(6)-alkyl norlysergic acid N,N-diethylamide derivatives” (J Med Chem, 1985)", "key": {"Rattus norvegicus [1]": {"tested_on": "Rattus norvegicus", "assay": "Number of rats scored LSD correct/number tested was reported at a dose of 46.5 nM/Kg using 2-lever drug discrimination assay; 2/8", "assay_type": "functional"}, "Rattus norvegicus [2]": {"tested_on": "Rattus norvegicus", "assay": "Number of rats scored LSD correct/number tested was reported at a dose of 23 nM/Kg using 2-lever drug discrimination assay; 1/8", "assay_type": "functional"}, "Rattus norvegicus [3]": {"tested_on": "Rattus norvegicus", "assay": "Number of rats scored LSD correct/number tested was reported at a dose of 93 nM/kg using 2-lever drug discrimination assay; 3/8", "assay_type": "functional"}, "Rattus norvegicus [4]": {"tested_on": "Rattus norvegicus", "assay": "Number of rats scored LSD correct/number tested was reported at a dose of 371 nM/kg using 2-lever drug discrimination assay; 8/8", "assay_type": "functional"}, "Rattus norvegicus [5]": {"species_on_record": "Rattus norvegicus", "assay": "Potency ratio was obtained using a 3 point x 3 point parallel-line bioassay for quantal data and reflects the potency relative to LSD; 0.66-0.25", "assay_type": "functional"}, "Rattus norvegicus [6]": {"tested_on": "Rattus norvegicus", "assay": "Number of rats scored LSD correct/number tested was reported at a dose of 185.5 nM/Kg using 2-lever drug discrimination assay; 5/8", "assay_type": "functional"}, "Rattus norvegicus [7]": {"species_on_record": "Rattus norvegicus", "assay": "Effective dose at which 50% of the rats tested selected the LSD-appropriate lever was reported; 0.052-0.186", "assay_type": "functional"}, "Rattus norvegicus [8]": {"tested_on": "Rattus norvegicus", "assay": "Number of rats scored LSD correct/number tested was reported at a dose of 742 nM/kg using 2-lever drug discrimination assay; 7/8", "assay_type": "functional"}, "Rattus norvegicus [9]": {"tested_on": "Rattus norvegicus", "assay": "Number of rats scored LSD correct/number tested was reported at a dose of 46.5 nM/kg using 2-lever drug discrimination assay; 0/8", "assay_type": "functional"}, "Rattus norvegicus [10]": {"species_on_record": "Rattus norvegicus", "assay": "Effective dose at which 50% of the rats tested selected the LSD-appropriate lever was reported; 0.209-0.610", "assay_type": "functional"}, "Rattus norvegicus [11]": {"species_on_record": "Rattus norvegicus", "assay": "Potency ratio was obtained using a 3 point x 3 point parallel-line bioassay for quantal data and reflects the potency relative to LSD; 0.21-0.08", "assay_type": "functional"}, "Rattus norvegicus [12]": {"tested_on": "Rattus norvegicus", "assay": "Number of rats scored LSD correct/number tested was reported at a dose of 93 nM/kg using 2-lever drug discrimination assay; 1/8", "assay_type": "functional"}, "Rattus norvegicus [13]": {"tested_on": "Rattus norvegicus", "assay": "Number of rats scored LSD correct/number tested was reported at a dose of 185.5 nM/kg using 2-lever drug discrimination assay; 1/8", "assay_type": "functional"}, "Rattus norvegicus [14]": {"tested_on": "Rattus norvegicus", "assay": "Number of rats scored LSD correct/number tested was reported at a dose of 371 nM/kg using 2-lever drug discrimination assay; 3/8", "assay_type": "functional"}, "Rattus norvegicus [15]": {"tested_on": "Rattus norvegicus", "assay": "Number of rats scored LSD correct/number tested was reported at a dose of 23 nM/Kg using 2-lever drug discrimination assay; 2/8", "assay_type": "functional"}, "Rattus norvegicus [16]": {"species_on_record": "Rattus norvegicus", "assay": "Potency ratio was obtained using a 3 point x 3 point parallel-line bioassay for quantal data and reflects the potency relative to LSD", "assay_type": "functional"}, "Rattus norvegicus [17]": {"tested_on": "Rattus norvegicus", "assay": "Number of rats scored LSD correct/number tested was reported at a dose of 11.5 nM/Kg using 2-lever drug discrimination assay; 0/8", "assay_type": "functional"}, "Rattus norvegicus [18]": {"tested_on": "Rattus norvegicus", "assay": "Number of rats scored LSD correct/number tested was reported at a dose of 93.0 nM/Kg using 2-lever drug discrimination assay; 6/8", "assay_type": "functional"}, "Rattus norvegicus [19]": {"tested_on": "Rattus norvegicus", "assay": "Number of rats scored LSD correct/number tested was reported at a dose of 46.5 nM/Kg using 2-lever drug discrimination assay; 4/8", "assay_type": "functional"}, "Rattus norvegicus [20]": {"species_on_record": "Rattus norvegicus", "assay": "Effective dose at which 50% of the rats tested selected the LSD-appropriate lever was reported; 0.029-0.072", "assay_type": "functional"}, "Rattus norvegicus [21]": {"tested_on": "Rattus norvegicus", "assay": "Number of rats scored LSD correct/number tested was reported at a dose of 185.5 nM/Kg using 2-lever drug discrimination assay; 8/8", "assay_type": "functional"}, "Rattus norvegicus [22]": {"species_on_record": "Rattus norvegicus", "assay": "Effective dose at which 50% of the rats tested selected the LSD-appropriate lever was reported; 0.019-0.071", "assay_type": "functional"}, "Rattus norvegicus [23]": {"tested_on": "Rattus norvegicus", "assay": "Number of rats scored LSD correct/number tested was reported at a dose of 11.5 nM/Kg using 2-lever drug discrimination assay; 2/8", "assay_type": "functional"}, "Rattus norvegicus [24]": {"tested_on": "Rattus norvegicus", "assay": "Number of rats scored LSD correct/number tested was reported at a dose of 185 nM/kg using 2-lever drug discrimination assay; 8/8", "assay_type": "functional"}, "Rattus norvegicus [25]": {"tested_on": "Rattus norvegicus", "assay": "Number of rats scored LSD correct/number tested was reported at a dose of 93 nM/Kg using 2-lever drug discrimination assay; 6/8", "assay_type": "functional"}, "Rattus norvegicus [26]": {"species_on_record": "Rattus norvegicus", "assay": "Potency ratio was obtained using a 3 point x 3 point parallel-line bioassay for quantal data and reflects the potency relative to LSD; 1.62-0.62", "assay_type": "functional"}, "Rattus norvegicus [27]": {"species_on_record": "Rattus norvegicus", "assay": "Potency ratio was obtained using a 3 point x 3 point parallel-line bioassay for quantal data and reflects the potency relative to LSD; 2.63-1.00", "assay_type": "functional"}, "Rattus norvegicus [28]": {"tested_on": "Rattus norvegicus", "assay": "Number of rats scored LSD correct/number tested was reported at a dose of 5.75 nM/Kg using 2-lever drug discrimination assay; 2/8", "assay_type": "functional"}, "Rattus norvegicus [29]": {"tested_on": "Rattus norvegicus", "assay": "Number of rats scored LSD correct/number tested was reported at a dose of 23.0 nM/Kg using 2-lever drug discrimination assay; 3/8", "assay_type": "functional"}, "Rattus norvegicus [30]": {"tested_on": "Rattus norvegicus", "assay": "Number of rats scored LSD correct/number tested was reported at a dose of 46.5 nM/Kg using 2-lever drug discrimination assay; 5/8", "assay_type": "functional"}, "Rattus norvegicus [31]": {"species_on_record": "Rattus norvegicus", "assay": "Effective dose at which 50% of the rats tested selected the LSD-appropriate lever was reported; 0.010-0.041", "assay_type": "functional"}, "Rattus norvegicus [32]": {"tested_on": "Rattus norvegicus", "assay": "Number of rats scored LSD correct/number tested was reported at a dose of 11.5 nM/Kg using 2-lever drug discrimination assay; 3/8", "assay_type": "functional"}, "Rattus norvegicus [33]": {"tested_on": "Rattus norvegicus", "assay": "Number of rats scored LSD correct/number tested was reported at a dose of 93 nM/Kg using 2-lever drug discrimination assay; 8/8", "assay_type": "functional"}, "Rattus norvegicus [34]": {"tested_on": "Rattus norvegicus", "assay": "Number of rats scored LSD correct/number tested was reported at a dose of 23 nM/kg using 2-lever drug discrimination assay; 4/8", "assay_type": "functional"}, "Rattus norvegicus [35]": {"tested_on": "Rattus norvegicus", "assay": "Number of rats scored LSD correct/number tested was reported at a dose of 93 nM/kg using 2-lever drug discrimination assay; 8/8", "assay_type": "functional"}, "Rattus norvegicus [36]": {"tested_on": "Rattus norvegicus", "assay": "Number of rats scored LSD correct/number tested was reported at a dose of 5.75 nM/kg using 2-lever drug discrimination assay; 3/8", "assay_type": "functional"}, "Rattus norvegicus [37]": {"species_on_record": "Rattus norvegicus", "assay": "Potency ratio was obtained using a 3 point x 3 point parallel-line bioassay for quantal data and reflects the potency relative to LSD; 3.27-1.24", "assay_type": "functional"}, "Rattus norvegicus [38]": {"tested_on": "Rattus norvegicus", "assay": "Number of rats scored LSD correct/number tested was reported at a dose of 11.5 nM/kg using 2-lever drug discrimination assay; 4/8", "assay_type": "functional"}, "Rattus norvegicus [39]": {"species_on_record": "Rattus norvegicus", "assay": "Effective dose at which 50% of the rats tested selected the LSD-appropriate lever was reported; 0.006-0.027", "assay_type": "functional"}, "Rattus norvegicus [40]": {"tested_on": "Rattus norvegicus", "assay": "Number of rats scored LSD correct/number tested was reported at a dose of 46.5 nM/kg using 2-lever drug discrimination assay; 6/8", "assay_type": "functional"}, "Rattus norvegicus [41]": {"tested_on": "Rattus norvegicus", "assay": "Number of rats scored LSD correct/number tested was reported at a dose of 0.742 uM/kg using 2-lever drug discrimination assay; complete generalisation did not occur at the highest dose used", "assay_type": "ADME, organism-based", "conditions": "in vivo"}, "Rattus norvegicus [42]": {"tested_on": "Rattus norvegicus", "assay": "Number of rats scored LSD correct/number tested was reported at a dose of 3.710 uM/kg using 2-lever drug discrimination assay; complete generalisation did not occur at the highest dose used", "assay_type": "ADME, organism-based", "conditions": "in vivo"}}}
{"smiles": "CCN(CC)C(=O)[C@@H]1C=C2c3cccc4[nH]cc(c34)C[C@H]2N(C(C)C)C1", "values": [{"measurement": "Activity", "setting": "Rattus norvegicus [1]", "value": 2}, {"measurement": "Activity", "setting": "Rattus norvegicus [2]", "value": 1}, {"measurement": "Activity", "setting": "Rattus norvegicus [3]", "value": 3}, {"measurement": "Activity", "setting": "Rattus norvegicus [4]", "value": 8}, {"measurement": "Potency ratio", "setting": "Rattus norvegicus [5]", "value": 0.41}, {"measurement": "Activity", "setting": "Rattus norvegicus [6]", "value": 5}, {"measurement": "ED50", "setting": "Rattus norvegicus [7]", "value": 0.1, "unit": "µg/kg"}]}
{"smiles": "CCCCN1C[C@H](C(=O)N(CC)CC)C=C2c3cccc4[nH]cc(c34)C[C@H]21", "values": [{"measurement": "Activity", "setting": "Rattus norvegicus [8]", "value": 7}, {"measurement": "Activity", "setting": "Rattus norvegicus [9]", "value": 0}, {"measurement": "ED50", "setting": "Rattus norvegicus [10]", "value": 0.357, "unit": "µg/kg"}, {"measurement": "Potency ratio", "setting": "Rattus norvegicus [11]", "value": 0.13}, {"measurement": "Activity", "setting": "Rattus norvegicus [12]", "value": 1}, {"measurement": "Activity", "setting": "Rattus norvegicus [13]", "value": 1}, {"measurement": "Activity", "setting": "Rattus norvegicus [14]", "value": 3}]}
{"smiles": "CCN(CC)C(=O)[C@@H]1C=C2c3cccc4[nH]cc(c34)C[C@H]2N(C)C1", "note": "[LYSERGIDE]", "values": [{"measurement": "Activity", "setting": "Rattus norvegicus [15]", "value": 2}, {"measurement": "Potency ratio", "setting": "Rattus norvegicus [16]", "value": 1}, {"measurement": "Activity", "setting": "Rattus norvegicus [17]", "value": 0}, {"measurement": "Activity", "setting": "Rattus norvegicus [18]", "value": 6}, {"measurement": "Activity", "setting": "Rattus norvegicus [19]", "value": 4}, {"measurement": "ED50", "setting": "Rattus norvegicus [20]", "value": 0.046, "unit": "µg/kg"}, {"measurement": "Activity", "setting": "Rattus norvegicus [21]", "value": 8}]}
{"smiles": "CCCN1C[C@H](C(=O)N(CC)CC)C=C2c3cccc4[nH]cc(c34)C[C@H]21", "values": [{"measurement": "Activity", "setting": "Rattus norvegicus [15]", "value": 2}, {"measurement": "ED50", "setting": "Rattus norvegicus [22]", "value": 0.037, "unit": "µg/kg"}, {"measurement": "Activity", "setting": "Rattus norvegicus [19]", "value": 4}, {"measurement": "Activity", "setting": "Rattus norvegicus [23]", "value": 2}, {"measurement": "Activity", "setting": "Rattus norvegicus [24]", "value": 8}, {"measurement": "Activity", "setting": "Rattus norvegicus [25]", "value": 6}, {"measurement": "Potency ratio", "setting": "Rattus norvegicus [26]", "value": 1}]}
{"smiles": "CCN(CC)C(=O)[C@@H]1C=C2c3cccc4[nH]cc(c34)C[C@H]2N(CC)C1", "values": [{"measurement": "Potency ratio", "setting": "Rattus norvegicus [27]", "value": 1.63}, {"measurement": "Activity", "setting": "Rattus norvegicus [28]", "value": 2}, {"measurement": "Activity", "setting": "Rattus norvegicus [29]", "value": 3}, {"measurement": "Activity", "setting": "Rattus norvegicus [30]", "value": 5}, {"measurement": "ED50", "setting": "Rattus norvegicus [31]", "value": 0.02, "unit": "µg/kg"}, {"measurement": "Activity", "setting": "Rattus norvegicus [32]", "value": 3}, {"measurement": "Activity", "setting": "Rattus norvegicus [33]", "value": 8}]}
{"smiles": "C=CCN1C[C@H](C(=O)N(CC)CC)C=C2c3cccc4[nH]cc(c34)C[C@H]21", "values": [{"measurement": "Activity", "setting": "Rattus norvegicus [34]", "value": 4}, {"measurement": "Activity", "setting": "Rattus norvegicus [35]", "value": 8}, {"measurement": "Activity", "setting": "Rattus norvegicus [36]", "value": 3}, {"measurement": "Potency ratio", "setting": "Rattus norvegicus [37]", "value": 2.01}, {"measurement": "Activity", "setting": "Rattus norvegicus [38]", "value": 4}, {"measurement": "ED50", "setting": "Rattus norvegicus [39]", "value": 0.013, "unit": "µmol/kg"}, {"measurement": "Activity", "setting": "Rattus norvegicus [40]", "value": 6}]}
{"smiles": "CCN(CC)C(=O)[C@@H]1C=C2c3cccc4[nH]cc(c34)C[C@H]2N(CCc2ccccc2)C1", "values": [{"measurement": "Activity", "setting": "Rattus norvegicus [41]", "value": 25, "unit": "%"}]}
{"smiles": "CCN(CC)C(=O)[C@@H]1C=C2c3cccc4[nH]cc(c34)C[C@H]2NC1", "values": [{"measurement": "Activity", "setting": "Rattus norvegicus [42]", "value": 50, "unit": "%"}]}
